Measurements: patent US11839683B2, “Method of rapidly achieving therapeutic concentrations of triptans for treatment of migraines” (EMERGEX USA CORPORATION, priority 2016, dated 2023)
Like-named read-outs stand apart in the source and are kept apart here.

Assays:
[1] = tested on: migraine; details: cited from earlier work
[2] = clinical; details: human, in vivo
Experimental: The final treatment administered was 3.8 mg on a 10 cm^2 patch using an applicator with 0.52 Joule of application energy in the intracutaneous microneedle system described herein. The products tested were:
(§1) This was a single-center, open-label, randomized five-way crossover study (Part 1) followed by a sequential study of two additional treatments (Parts 2 and 3). After obtaining informed consent and establishing eligibility, each subject received each of the seven study treatments once, followed by in-clinic monitoring and extensive blood sample collection for pharmacokinetic analysis. […] Plasma samples from the initial dosing days were sent to the analytical laboratory for analysis, and tolerability for each of the dose levels was summarized. […] During Part 3, subjects received a single 3.8 mg patch (applied with a 0.52 J applicator) and also completed identical procedures to the previous dosing days. After completion of the seven dosing days, subjects were assessed one final time and dismissed from the study.
Twenty subjects were enrolled in the study, 10 males and 10 females. The subjects mean age was 29 years±3.5 years with a mean BMI of 24.4±3.5.
(§2) PK parameters were summarized by treatment group using descriptive statistics (arithmetic means, standard deviations, coefficients of variation, sample size, minimum, maximum, and median).
Graphs of apparent dose linearity and proportionality of PK parameters (AUCt, AUCinf and Cmax) were compiled.

[3] = cited from earlier work
[4] = in vivo
Source text: as §1, §2

[5] = TABLET 80 mg, 1 hour, Sheftell et al 2003
[6] = TABLET 80 mg, 2 hour, Sheftell et al 2003
[7] = TABLET 80 mg, 4 hour, Sheftell et al 2003
[8] = TABLET 2.5 mg, 1 hour, Bomhof et al, 1999
[9] = TABLET 2.5 mg, 2 hour, Bomhof et al, 1999
[10] = TABLET 100 mg, 1 hour, Tfelt-Hansen et al, 1998
[11] = TABLET 100 mg, 2 hour, Tfelt-Hansen et al, 1998
[12] = TABLET 10 mg, 1 hour, Tfelt-Hansen et al, 1998
[13] = TABLET 10 mg, 2 hour, Tfelt-Hansen et al, 1998
[14] = WAFER 5 mg, 1 hour, Ahrens et al, 1999
[15] = WAFER 5 mg, 2 hour, Ahrens et al, 1999
[16] = WAFER 10 mg, 1 hour, Ahrens et al, 1999
[17] = WAFER 10 mg, 2 hour, Ahrens et al, 1999

## CN1CCC[C@@H]1Cc1c[nH]c2ccc(CCS(=O)(=O)c3ccccc3)cc12 [Eletriptan]
[1]; [5]
  % PAIN FREE: 10.0%
  % PAIN RELIEF: 32.0%
[1]; [6]
  % PAIN FREE: 27.0%
  % PAIN RELIEF: 59.0%
[1]; [7]
  % PAIN FREE: 49.0%
  % PAIN RELIEF: 79.0%

## CNS(=O)(=O)CCc1ccc2[nH]cc(C3CCN(C)CC3)c2c1 [naratriptan]
[1]; [8]
  % PAIN FREE: 3.3%
  % PAIN RELIEF: 27.7%
[1]; [9]
  % PAIN FREE: 20.7%
  % PAIN RELIEF: 48.4%
[1]; lowest oral dose
  pain freedom at 2 hours: 18%
  pain relief at 2 hours: 49%

## CN[C@@H]1CCc2[nH]c3ccc(C(N)=O)cc3c2C1 [frovatriptan]
[1]; oral
  efficacy in 2-hour response, 2-hour pain free compared to the other triptans: lowest efficacy

## CNS(=O)(=O)Cc1ccc2[nH]cc(CCN(C)C)c2c1 [SC Suma]
[2]; sc, 6 mg
  Tmax Med (Range): 10 (5-20)

## CN(C)CCc1c[nH]c2ccc(C[C@H]3COC(=O)N3)cc12 [Oral Zolmi]
[2]; po, 2.5 mg
  AUC0-last/Dose: 8.6
  Tmax Med (Range): 60 (30-240)

## CNS(=O)(=O)Cc1ccc2[nH]cc(CCN(C)C)c2c1 [Sumatriptan, sumatriptan]
[1]; [10]
  % PAIN FREE: 7.8%
  % PAIN RELIEF: 27.9%
[1]; [11]
  % PAIN FREE: 32.8%
  % PAIN RELIEF: 61.8%
[3]; oral tablet
  Tmax after oral tablet administration: about 2 hours
[3]; oral
  bioavailability, oral administration (as a succinate): about 15%
[3]; rapid-release tablet formulation, on average
  Tmax achieved earlier than the conventional tablet: 10 to 15 min

## CNCCc1c[nH]c2ccc(C[C@H]3COC(=O)N3)cc12 [N-desmethyl zolmitriptan]
[4]; human
  Mean AUCinf of N-desmethyl metabolite: 14.55 ng·H/mL
  Mean Cmax of N-desmethyl metabolite: 2.08 ng/mL
  Tmax of N-desmethyl metabolite: 54.7 to 65.0 min
[4]; human, 0.48 mg
  Mean AUCinf of N-desmethyl metabolite: 1.38 ng·H/mL
  Mean Cmax of N-desmethyl metabolite: 0.22 ng/mL
[4]; human, 3.8 mg
  Mean AUCinf of N-desmethyl metabolite: 8.17 ng·H/mL
  Mean Cmax of N-desmethyl metabolite: 1.77 ng/mL
[4]; human, po
  elimination half life (t1/2) of the metabolite: 2.7-3.31 H
[4]
  time to peak plasma concentration of the N-desmethyl metabolite: around 1 hour
[4]; po
  time to peak plasma concentration of the N-desmethyl metabolite: 2.7 h

## CN(C)CCc1c[nH]c2ccc(Cn3cncn3)cc12 [Rizatriptan]
[1]; [12]
  % PAIN FREE: 10.4%
  % PAIN RELIEF: 36.6%
[1]; [13]
  % PAIN FREE: 40.3%
  % PAIN RELIEF: 67.0%
[1]; [14]
  % PAIN FREE: 7.7%
  % PAIN RELIEF: 39.8%
[1]; [15]
  % PAIN FREE: 34.8%
  % PAIN RELIEF: 58.6%
[1]; [16]
  % PAIN FREE: 13.0%
  % PAIN RELIEF: 44.9%
[1]; [17]
  % PAIN FREE: 42.2%
  % PAIN RELIEF: 74.1%
